Where “and” joins values, the source holds several entries; their conditions need not be identical. Equal values may be shown once.

The results in this text go back to the Kinase Knowledgebase extract (Sharma et al. 2016).

This assay deals with CDK2 (UniProt P24941). Put plainly: Enzyme Assay.
The term IC50 denotes the concentration needed to halve the response being measured. A higher IC50 goes with a need for much substance. In the case of `CC(C)[C@@H](CO)Nc1cc(NCc2ccc[n+]([O-])c2)n2ncc(Br)c2n1`, the IC50 is 0.1 to 100 nM.
The same measure for `Fc1ccccc1-c1cc(NCc2ccc3[nH]cnc3c2)n2ncc(Br)c2n1`: 0.1 to 100 nM; for `[O-][n+]1cccc(CNc2cc(N3CCC[C@H]3CO)nc3c(Br)cnn23)c1`: 0.1 to 100 nM.
Regarding `CCc1cnn2c(NCc3ccnc(O)c3)cc(-c3ccccc3)nc12`, the concentration for half-maximal inhibition (IC50) fell in the range of 0.1 to 100 nM.
Take `CCc1cnn2c(NCc3cccnc3)cc(-c3ccccc3)nc12`: the IC50 is 0.1 to 100 nM.
The same measure for `[O-][n+]1cccc(CNc2cc(-c3ccc(Cl)cc3)nc3c(Br)cnn23)c1`: 0.1 to 100 nM.
In the case of `Nc1ncc(CNc2cc(C3CCCNC3)nc3c(Br)cnn23)cn1` (centres undefined) it was 0.1 to 100 nM; in that of `O=C(C1CC1)N1CCC(c2cc(NCc3cccnc3)n3ncc(Br)c3n2)CC1`, 0.1 to 100 nM; in that of `[O-][n+]1cccc(CNc2cc(-c3ccccc3)nc3c(Br)cnn23)c1`, 0.1 to 100 nM.
`Brc1cnn2c(NCc3ccc4[nH]cnc4c3)cc(C3CCCCC3)nc12` registered a half-maximal inhibitory concentration (IC50) of 0.1 to 100 nM.
The same measure for `[O-][n+]1cccc(CNc2cc(-c3ccccc3Cl)nc3c(Br)cnn23)c1`: 0.1 to 100 nM; for `Brc1cnn2c(NCc3cccnc3)cc(-c3ccccc3)nc12`: 0.1 to 100 nM; for `COc1c(Cl)cc(CNc2cc(-c3ccccc3)nc3c(Br)cnn23)c[n+]1[O-]`: 0.1 to 100 nM.
The same measure for `OCC1CCCCN1c1cc(NCc2cccnc2)n2ncc(Br)c2n1` (centres undefined): 0.1 to 100 nM; for `O=c1cc(CNc2cc(-c3ccccc3)nc3c(Br)cnn23)cc[nH]1`: 0.1 to 100 nM; for `Brc1cnn2c(NCc3cccnc3)cc(-c3ccco3)nc12`: 0.1 to 100 nM.
The same measure for `CC(C)(O)[C@@H]1CCCN1c1cc(NCc2ccc[n+]([O-])c2)n2ncc(Br)c2n1`: 0.1 to 100 nM; for `CCc1cnn2c(NCc3ccc[n+]([O-])c3)cc(-c3ccccc3F)nc12`: 0.1 to 100 nM; for `CNC(=O)c1ccc(CNc2cc(-c3ccccc3F)nc3c(Br)cnn23)cc1`: 0.1 to 100 nM.
Consider `[O-][n+]1cc(CNc2cc(-c3ccccc3)nc3c(Br)cnn23)ccc1OCC(F)(F)F`, for which the IC50 lay within 0.1 to 100 nM.
On to `CCc1cnn2c(NCc3ccc[n+]([O-])c3)cc(-c3ccccc3)nc12`, for which the IC50 lay in the range of 0.1 to 100 nM.
The compound `[O-][n+]1cccc(CNc2cc(C3CCNCC3)nc3c(Br)cnn23)c1` yielded an IC50 of 0.1 to 100 nM.
In turn, `Brc1cnn2c(NCc3ccc(-c4csnn4)cc3)cc(C3CCNCC3)nc12` came in with an IC50 of 0.1 to 100 nM.
The same measure for `CS(=O)(=O)N1CCC(c2cc(NCc3cccnc3)n3ncc(Br)c3n2)CC1`: 0.1 to 100 nM; for `OC[C@H]1CCCC[C@H]1c1cc(NCc2cccnc2)n2ncc(Br)c2n1`: 0.1 to 100 nM.
As to `[O-][n+]1cccc(CNc2cc(-c3ccco3)nc3c(Br)cnn23)c1`, the IC50 lay in the range of 0.1 to 100 nM.
In the case of `Brc1cnn2c(NCc3cccnc3)cc(C3CCOCC3)nc12` it was 0.1 to 100 nM; in that of `Brc1cnn2c(NCc3cccnc3)cc(C3CCNCC3)nc12`, 0.1 to 100 nM; in that of `CC(C)(O)[C@H]1CCCC[C@H]1c1cc(NCc2cccnc2)n2ncc(Br)c2n1`, 0.1 to 100 nM.
The same measure for `NC(=O)N1CCCC(c2cc(NCc3cccnc3)n3ncc(Br)c3n2)C1` (centres undefined): 0.1 to 100 nM; for `NC(=O)N1CCC(c2cc(NCc3cccnc3)n3ncc(Br)c3n2)CC1`: 0.1 to 100 nM.
In the case of `CC1(C)[C@@H]2[C@@H](CO)N(c3cc(NCc4cccnc4)n4ncc(Br)c4n3)C[C@@H]21` it was 0.1 to 100 nM; in that of `CC(C)(CO)Nc1cc(NCc2cccnc2)n2ncc(Br)c2n1`, 0.1 to 100 nM.
Consider `[O-][n+]1cccc(CNc2cc(-c3cccs3)nc3c(Br)cnn23)c1`, for which the IC50 was 0.1 to 100 nM.
The same measure for `N[C@H]1CC[C@H](Nc2cc(NCc3cccnc3)n3ncc(Br)c3n2)CC1`: 0.1 to 100 nM; for `CS(=O)(=O)N1CCCC(c2cc(NCc3cccnc3)n3ncc(Br)c3n2)C1` (centres undefined): 0.1 to 100 nM.
Compound `OCC1(Nc2cc(NCc3cccnc3)n3ncc(Br)c3n2)CCCC1` gave an IC50 of 0.1 to 100 nM.
On to `Oc1cc(CNc2cc(C3CCCCC3)nc3c(Br)cnn23)ccn1`, for which the IC50 fell in the range of 0.1 to 100 nM.
In the case of `CCOc1ccc(CNc2cc(-c3ccccc3)nc3c(Br)cnn23)c[n+]1[O-]` it was 0.1 to 100 nM; in that of `Brc1cnn2c(NCc3cccnc3)cc(C3CCCNC3)nc12` (centres undefined), 0.1 to 100 nM.
Take `OCC[C@@H]1CCCN1c1cc(NCc2cccnc2)n2ncc(Br)c2n1`: the IC50 lay within 0.1 to 100 nM.
The same measure for `[O-][n+]1cccc(CNc2cc(C3CCOCC3)nc3c(Br)cnn23)c1`: 0.1 to 100 nM; for `CC(C)c1cc(NCc2ccc[n+]([O-])c2)n2ncc(Br)c2n1`: 0.1 to 100 nM; for `[O-][n+]1cccc(CNc2cc(-c3ccccc3F)nc3c(Br)cnn23)c1`: 0.1 to 100 nM.
The same measure for `COc1ccc(CNc2cc(-c3ccccc3F)nc3c(Br)cnn23)c[n+]1[O-]`: 0.1 to 100 nM; for `CC(=O)N1CCC(c2cc(NCc3cccnc3)n3ncc(Br)c3n2)CC1`: 0.1 to 100 nM.
The same measure for `Cn1cnc2cc(CNc3cc(-c4ccccc4)nc4c(Br)cnn34)ccc21`: 0.1 to 100 nM.
`O=c1ccc(CNc2cc(C3CCCCC3)nc3c(Br)cnn23)c[nH]1` showed an IC50 of 0.1 to 100 nM.
`CC(C)Oc1ccc(CNc2cc(-c3ccccc3F)nc3c(Br)cnn23)c[n+]1[O-]` had an IC50 of 0.1 to 100 nM.
`OCCC1CCCCN1c1cc(NCc2cccnc2)n2ncc(Br)c2n1` (centres undefined) returned an IC50 of 0.1 to 100 nM.
In the case of `Fc1ccccc1-c1cc(NCc2ccncc2)n2ncc(Br)c2n1` it was 32 nM and 24 nM; in that of `CN1CCN(c2cc(NCc3cccnc3)n3ncc(Br)c3n2)CC1`, 140 nM.
Take `Brc1cnn2c(NCc3ccc4[nH]cnc4c3)cc(C3CCNCC3)nc12`: the IC50 fell in the range of 0.1 to 100 nM.
The compound `Cc1ccccc1-c1cc(NCc2ccc[n+]([O-])c2)n2ncc(Br)c2n1` registered an IC50 of 0.1 to 100 nM.
In the case of `[O-][n+]1cccc(CNc2cc(C3CCCCC3)nc3c(Br)cnn23)c1` it was 0.1 to 100 nM; in that of `Brc1cnn2c(NCc3cccnc3)cc(C3CCCCC3)nc12`, 0.1 to 100 nM.
Regarding `O=c1ccc(CNc2cc(-c3ccccc3F)nc3c(Br)cnn23)c[nH]1`, the IC50 was 0.1 to 100 nM.
`CC(C)(O)[C@@H]1CCCN1c1cc(NCc2cccnc2)n2ncc(Br)c2n1` came in with an IC50 of 0.1 to 100 nM.
In the case of `CCc1cnn2c(NCc3ccc[n+]([O-])c3)cc(C3CCCCC3)nc12` it was 0.1 to 100 nM; in that of `OC[C@H]1CCCC[C@H]1Nc1cc(NCc2cccnc2)n2ncc(Br)c2n1`, 0.1 to 100 nM.
In the case of `CC(=O)N1CCCC(c2cc(NCc3cccnc3)n3ncc(Br)c3n2)C1` (centres undefined) it was 0.1 to 100 nM; in that of `CCc1cnn2c(NCc3ccc(OC)[n+]([O-])c3)cc(-c3ccccc3F)nc12`, 0.1 to 100 nM; in that of `CC(C)[C@H](CO)Nc1cc(NCc2ccc[n+]([O-])c2)n2ncc(Br)c2n1`, 0.1 to 100 nM.
In the case of `O=c1ccc(CNc2cc(-c3ccccc3)nc3c(Br)cnn23)c[nH]1` it was 0.1 to 100 nM.
